# According to ChEMBL document CHEMBL1149378, “Naphthofuroquinone derivatives: inhibition of receptor tyrosine kinases” (Bioorg Med Chem Lett, 2006):
# pIC50: −log10 of the molar value. Activity calls are given as the source filed them. No cut-off for these calls is given here.
# How the values were obtained:
# A-431 = assay: Cytotoxicity against epidermoid carcinoma A431 cell line; format: functional, cell-based; conditions: Homo sapiens
# [1] = target: T1, Vascular endothelial growth factor receptor 2 (Homo sapiens, UniProt P35968); assay: Inhibitory activity against VEGFR2 kinase at 20 uM
# [2] = target: T2, Fibroblast growth factor receptor 1 (Homo sapiens, UniProt P11362); assay: Inhibitory activity against FGFR1 kinase at 20 uM
# Target sequence in this assay (P11362 22-822 limits assumed): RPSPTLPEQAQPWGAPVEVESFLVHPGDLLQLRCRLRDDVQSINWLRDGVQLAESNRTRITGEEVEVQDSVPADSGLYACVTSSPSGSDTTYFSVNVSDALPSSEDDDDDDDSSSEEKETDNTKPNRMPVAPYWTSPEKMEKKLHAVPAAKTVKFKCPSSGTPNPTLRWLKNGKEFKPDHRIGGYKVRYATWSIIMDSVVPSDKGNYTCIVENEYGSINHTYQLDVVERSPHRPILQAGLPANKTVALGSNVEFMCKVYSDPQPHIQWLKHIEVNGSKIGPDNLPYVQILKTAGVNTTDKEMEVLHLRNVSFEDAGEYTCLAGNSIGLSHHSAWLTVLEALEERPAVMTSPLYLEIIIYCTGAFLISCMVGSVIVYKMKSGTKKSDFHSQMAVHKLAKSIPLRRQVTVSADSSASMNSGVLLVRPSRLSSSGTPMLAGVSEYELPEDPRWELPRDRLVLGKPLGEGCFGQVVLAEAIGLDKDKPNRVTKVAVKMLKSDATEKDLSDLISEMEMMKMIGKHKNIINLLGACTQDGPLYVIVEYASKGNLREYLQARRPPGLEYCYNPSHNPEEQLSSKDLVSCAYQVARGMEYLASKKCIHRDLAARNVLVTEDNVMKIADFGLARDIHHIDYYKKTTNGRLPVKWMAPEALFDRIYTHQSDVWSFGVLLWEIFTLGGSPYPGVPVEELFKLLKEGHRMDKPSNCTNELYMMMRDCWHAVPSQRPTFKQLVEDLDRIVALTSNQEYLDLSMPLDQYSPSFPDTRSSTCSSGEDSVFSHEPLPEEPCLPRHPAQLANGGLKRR
# [3] = target: T3, Platelet-derived growth factor receptor beta (Homo sapiens, UniProt P09619); assay: Inhibitory activity against PDGFRbeta kinase at 20 uM
# [4] = target: T4, Epidermal growth factor receptor (Homo sapiens, UniProt P00533); assay: Inhibitory activity against EGFR kinase
# [5] = target: T1, Vascular endothelial growth factor receptor 2; assay: Inhibitory activity against VEGFR2 kinase
# [6] = target: T2, Fibroblast growth factor receptor 1; assay: Inhibitory activity against FGFR1 kinase
# Target sequence in this assay (P11362 whole entry): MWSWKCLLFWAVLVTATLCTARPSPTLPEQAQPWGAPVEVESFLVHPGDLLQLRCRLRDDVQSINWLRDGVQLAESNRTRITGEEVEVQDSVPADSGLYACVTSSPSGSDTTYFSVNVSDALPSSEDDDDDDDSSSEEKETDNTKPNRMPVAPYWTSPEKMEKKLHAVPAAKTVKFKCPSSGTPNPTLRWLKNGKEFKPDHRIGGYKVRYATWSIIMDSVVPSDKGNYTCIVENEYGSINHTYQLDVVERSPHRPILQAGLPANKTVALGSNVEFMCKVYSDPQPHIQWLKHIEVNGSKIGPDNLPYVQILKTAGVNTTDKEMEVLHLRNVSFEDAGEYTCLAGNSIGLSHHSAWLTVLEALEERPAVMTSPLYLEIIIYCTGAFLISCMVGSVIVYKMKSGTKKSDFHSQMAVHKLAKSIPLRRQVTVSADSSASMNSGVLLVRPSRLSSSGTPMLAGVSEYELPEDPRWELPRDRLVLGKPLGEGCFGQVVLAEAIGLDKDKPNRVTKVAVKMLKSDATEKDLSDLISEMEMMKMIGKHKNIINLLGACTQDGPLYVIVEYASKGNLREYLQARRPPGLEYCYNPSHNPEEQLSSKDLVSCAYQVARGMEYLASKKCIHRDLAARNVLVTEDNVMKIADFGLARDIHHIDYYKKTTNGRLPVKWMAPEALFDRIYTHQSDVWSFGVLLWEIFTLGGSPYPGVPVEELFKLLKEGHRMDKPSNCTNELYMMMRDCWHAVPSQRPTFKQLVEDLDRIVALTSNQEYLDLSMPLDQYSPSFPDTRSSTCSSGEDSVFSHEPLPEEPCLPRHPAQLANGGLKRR
# [7] = target: T3, Platelet-derived growth factor receptor beta; assay: Inhibitory activity against PDGFRbeta kinase
# [8] = target: T4, Epidermal growth factor receptor; conditions: 20 uM
# Description: Inhibitory activity against EGFR kinase at 20 uM
# [9] = target: T4, Epidermal growth factor receptor; assay: Intracellular inhibition of autophosphorylation of EGFR in A431 cells; format: functional, cell-based; conditions: A-431
# HUVEC [10] = assay: Inhibition of HUVEC tube formation at 10 uM; format: functional, cell-based; conditions: Homo sapiens
# [11] = target: T4, Epidermal growth factor receptor; assay: Inhibition of ERK1 phosphorylation in EGF-treated A431 cells at 1 uM; format: functional, cell-based; conditions: A-431
# [12] = target: T4, Epidermal growth factor receptor; assay: Inhibition of ERK2 phosphorylation in EGF-treated A431 cells at 1 uM; format: functional, cell-based; conditions: A-431
# [13] = target: T4, Epidermal growth factor receptor; assay: Inhibition of MEK1 phosphorylation in EGF-treated A431 cells at 1 uM; format: functional, cell-based; conditions: A-431
# [14] = target: T4, Epidermal growth factor receptor; assay: Inhibition of MEK2 phosphorylation in EGF-treated A431 cells at 1 uM; format: functional, cell-based; conditions: A-431
# HUVEC [15] = assay: Inhibition of HUVEC tube formation at 2 uM; format: functional, cell-based; conditions: Homo sapiens
# T3 sequence (P09619 whole entry): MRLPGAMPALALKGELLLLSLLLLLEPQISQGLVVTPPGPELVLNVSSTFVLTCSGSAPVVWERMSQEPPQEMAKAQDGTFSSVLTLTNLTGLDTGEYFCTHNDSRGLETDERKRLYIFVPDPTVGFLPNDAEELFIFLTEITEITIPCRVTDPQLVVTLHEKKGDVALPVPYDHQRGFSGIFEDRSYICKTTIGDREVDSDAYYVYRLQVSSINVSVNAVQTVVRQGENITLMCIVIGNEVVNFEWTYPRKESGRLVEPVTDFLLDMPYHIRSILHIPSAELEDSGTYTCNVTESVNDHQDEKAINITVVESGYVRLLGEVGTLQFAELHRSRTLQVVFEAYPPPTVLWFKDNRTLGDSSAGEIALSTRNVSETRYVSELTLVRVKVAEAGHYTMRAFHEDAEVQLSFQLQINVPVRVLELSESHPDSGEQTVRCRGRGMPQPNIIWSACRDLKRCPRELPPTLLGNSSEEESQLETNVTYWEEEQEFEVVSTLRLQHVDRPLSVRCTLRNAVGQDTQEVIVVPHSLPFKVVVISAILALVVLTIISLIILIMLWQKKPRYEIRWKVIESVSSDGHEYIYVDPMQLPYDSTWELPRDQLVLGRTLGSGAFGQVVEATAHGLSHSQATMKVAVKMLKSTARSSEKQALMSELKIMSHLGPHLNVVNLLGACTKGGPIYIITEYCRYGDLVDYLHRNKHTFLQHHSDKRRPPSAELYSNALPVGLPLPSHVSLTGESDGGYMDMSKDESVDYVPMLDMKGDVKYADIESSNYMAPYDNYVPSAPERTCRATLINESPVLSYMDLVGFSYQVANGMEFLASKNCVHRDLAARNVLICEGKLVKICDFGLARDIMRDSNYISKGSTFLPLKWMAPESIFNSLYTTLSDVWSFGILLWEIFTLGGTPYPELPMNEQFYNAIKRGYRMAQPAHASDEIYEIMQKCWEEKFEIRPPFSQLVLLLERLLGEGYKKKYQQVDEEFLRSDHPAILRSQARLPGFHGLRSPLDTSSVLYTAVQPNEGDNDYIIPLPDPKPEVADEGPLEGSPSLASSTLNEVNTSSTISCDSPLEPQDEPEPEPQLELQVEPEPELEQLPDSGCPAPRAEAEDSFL
# T1 sequence (P35968 whole entry): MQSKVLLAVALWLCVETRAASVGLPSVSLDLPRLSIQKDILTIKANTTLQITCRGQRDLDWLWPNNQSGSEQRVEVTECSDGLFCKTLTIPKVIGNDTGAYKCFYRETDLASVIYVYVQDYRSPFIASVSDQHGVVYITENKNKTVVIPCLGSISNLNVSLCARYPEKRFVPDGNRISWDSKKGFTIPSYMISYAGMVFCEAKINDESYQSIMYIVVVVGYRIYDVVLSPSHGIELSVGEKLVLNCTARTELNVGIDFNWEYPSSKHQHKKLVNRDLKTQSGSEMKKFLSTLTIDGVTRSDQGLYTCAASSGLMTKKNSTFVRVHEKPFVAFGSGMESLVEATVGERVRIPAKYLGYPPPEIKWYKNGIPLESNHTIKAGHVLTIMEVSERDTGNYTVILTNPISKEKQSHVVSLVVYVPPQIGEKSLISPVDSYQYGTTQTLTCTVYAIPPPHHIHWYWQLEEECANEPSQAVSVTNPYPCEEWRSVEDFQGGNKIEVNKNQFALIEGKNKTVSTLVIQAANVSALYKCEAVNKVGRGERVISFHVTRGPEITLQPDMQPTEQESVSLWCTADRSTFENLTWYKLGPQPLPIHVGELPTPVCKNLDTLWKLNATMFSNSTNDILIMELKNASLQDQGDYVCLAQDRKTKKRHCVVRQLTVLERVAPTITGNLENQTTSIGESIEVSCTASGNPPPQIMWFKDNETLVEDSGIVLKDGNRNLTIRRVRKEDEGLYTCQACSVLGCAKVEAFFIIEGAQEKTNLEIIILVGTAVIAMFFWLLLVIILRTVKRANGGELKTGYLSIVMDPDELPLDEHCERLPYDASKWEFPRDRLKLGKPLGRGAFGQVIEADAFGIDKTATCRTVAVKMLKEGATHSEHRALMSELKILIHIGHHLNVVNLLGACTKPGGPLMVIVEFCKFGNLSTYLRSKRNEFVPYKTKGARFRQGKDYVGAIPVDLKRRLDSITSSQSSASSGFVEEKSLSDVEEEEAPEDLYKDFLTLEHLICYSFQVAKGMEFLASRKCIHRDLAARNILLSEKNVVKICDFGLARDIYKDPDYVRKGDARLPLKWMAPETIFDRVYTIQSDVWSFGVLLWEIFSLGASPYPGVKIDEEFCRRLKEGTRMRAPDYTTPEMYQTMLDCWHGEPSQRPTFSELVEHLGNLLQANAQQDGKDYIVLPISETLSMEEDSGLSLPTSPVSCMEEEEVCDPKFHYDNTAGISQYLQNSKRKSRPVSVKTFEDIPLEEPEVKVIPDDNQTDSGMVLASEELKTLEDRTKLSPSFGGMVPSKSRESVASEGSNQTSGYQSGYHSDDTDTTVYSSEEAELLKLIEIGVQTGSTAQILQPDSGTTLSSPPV
SMILES,inhibition [1] [%],inhibition [2] [%],inhibition [3] [%],pIC50 [4],pIC50 [5],pIC50 [6],pIC50 [7],inhibition [8] [%],Activity [9],Activity [11],Activity [12],Activity [13],Activity [14],pIC50 (A-431),Activity (HUVEC [10]),Activity (HUVEC [15])
COC(=O)c1c(OCCN2CCCC2)c2ccccc2c2oc3c(c12)C(=O)c1ccccc1C3=O,86.5,65.2,95.5,5.05,5.26,4.62,5.06,77.1,–,–,–,–,–,5.96,–,–
COC(=O)c1c(OCc2ccc(C(F)(F)F)cc2)c2ccccc2c2oc3c(c12)C(=O)c1ccccc1C3=O,40.9,44.5,51.5,–,–,–,–,33.6,–,–,–,–,–,–,–,–
COC(=O)c1c(OCCN2CCOCC2)c2ccccc2c2oc3c(c12)C(=O)c1ccccc1C3=O,40.7,41.4,46.2,–,–,–,–,67.9,–,–,–,–,–,–,–,–
COC(=O)c1c(OCc2ccc(C(=O)OC(C)(C)C)cc2)c2ccccc2c2oc3c(c12)C(=O)c1ccccc1C3=O,52.2,50.8,62.2,–,–,–,–,57.1,–,–,–,–,–,–,–,–
COC(=O)c1c(OCCN2CCCCC2)c2ccccc2c2oc3c(c12)C(=O)c1ccccc1C3=O,81.7,79.1,89.8,5.55,5.34,5.15,5.26,84.3,Active,Active,Active,Active,Active,5.37,Active,–
COC(=O)c1c(OC(C)=O)c2ccccc2c2oc3c(c12)C(=O)c1ccccc1C3=O,–,-8.1,-0.3,–,–,–,–,21.6,–,–,–,–,–,–,–,–
COC(=O)c1c(OCCN2CCN(Cc3ccc(C(F)(F)F)cc3)CC2)c2ccccc2c2oc3c(c12)C(=O)c1ccccc1C3=O,43.3,48.2,52,–,–,–,–,47.5,–,–,–,–,–,–,–,–
N#CC(C#N)=C(N)/C(C#N)=C/c1cc(O)c(O)c(O)c1 [TYRPHOSTIN 51],88,93,82,5.39,5.37,5.31,5.55,90,–,–,–,–,–,–,–,–
COC(=O)c1c(O)c2ccccc2c2oc3c(c12)C(=O)c1ccccc1C3=O,16,12.6,2.8,–,–,–,–,21.4,–,–,–,–,–,–,–,–
COC(=O)c1c(OCc2ccncc2)c2ccccc2c2oc3c(c12)C(=O)c1ccccc1C3=O,3.1,2.6,2.9,–,–,–,–,19.4,–,–,–,–,–,–,–,–
COC(=O)c1c(OCc2ccc(OC)cc2)c2ccccc2c2oc3c(c12)C(=O)c1ccccc1C3=O,48.3,46,69.4,–,–,–,–,72.6,–,–,–,–,–,–,–,–
COC(=O)c1c(OCCCN2CCN(c3ccccc3Cl)CC2)c2ccccc2c2oc3c(c12)C(=O)c1ccccc1C3=O,62.1,55.5,68.9,–,–,–,–,68.3,–,–,–,–,–,–,–,–

# Further lines, with some results ahead:
inhibition [1] [%],inhibition [2] [%],inhibition [3] [%],pIC50 [4],pIC50 [5],pIC50 [6],pIC50 [7],inhibition [8] [%],Activity [9],Activity [11],Activity [12],Activity [13],Activity [14],SMILES,pIC50 (A-431),Activity (HUVEC [10]),Activity (HUVEC [15])
-0.8,10.5,12.7,4.90,–,< 4.30,< 4.30,16.7,–,–,–,–,–,COC(=O)c1c(OC)c2ccccc2c2oc3c(c12)C(=O)c1ccccc1C3=O,–,–,–
57.5,51.2,57.2,4.87,4.81,4.42,4.99,72.4,–,–,–,–,–,COC(=O)c1c(OCCCN(C)C)c2ccccc2c2oc3c(c12)C(=O)c1ccccc1C3=O,–,–,–
-2.1,2.4,5.7,< 4.30,–,< 4.30,< 4.30,38.7,–,–,–,–,–,CCCOc1c(C(=O)OC)c2c3c(oc2c2ccccc12)C(=O)c1ccccc1C3=O,–,–,–
57.1,51,56.5,4.51,4.89,4.63,5.12,71,–,–,–,–,–,COC(=O)c1c(OCCN(C)C)c2ccccc2c2oc3c(c12)C(=O)c1ccccc1C3=O,5.96,Active,Active
60.4,61.1,64.1,5.29,4.90,5.06,4.80,82.1,Active,–,–,–,–,CCN(CC)CCOc1c(C(=O)OC)c2c3c(oc2c2ccccc12)C(=O)c1ccccc1C3=O,5.77,Active,–
